Results from PubChem BioAssay (NCI).
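Values below derive from 48-hour exposures of cells grown in 96-well plates, with endpoints linearly interpolated between the two concentrations bracketing the appropriate inhibition level. TGI denotes the concentration required for complete inhibition of growth.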

Legend:
Experiment in all cases: NCI-60 cell line screen, 48 h
MOLT-4 leukemia = system: MOLT-4 leukemia
OVCAR-8 ovarian = system: OVCAR-8 ovarian
SK-OV-3 ovarian = system: SK-OV-3 ovarian
ACHN renal = system: ACHN renal
RPMI-8226 leukemia = system: RPMI-8226 leukemia
UO-31 renal = system: UO-31 renal
HL-60(TB) leukemia = system: HL-60(TB) leukemia
NCI-H460 lung = system: NCI-H460 lung
PC-3 prostate = system: PC-3 prostate
BT-549 breast = system: BT-549 breast

`COc1cccc(-c2nccc3c(OCc4ccccc4)c(OC)c(OC)cc23)c1` showed a TGI (MOLT-4 leukemia) of over 100 µM, a TGI (OVCAR-8 ovarian) of over 100 µM and a TGI (SK-OV-3 ovarian) of over 100 µM. It also gave a TGI (ACHN renal) of over 100 µM, a TGI (RPMI-8226 leukemia) of over 100 µM and a TGI (UO-31 renal) of over 100 µM. It also gave a TGI (HL-60(TB) leukemia) of over 100 µM.
Work on `O=C(c1ccc(O)c([N+](=O)[O-])c1)c1ccc(O)c([N+](=O)[O-])c1` yielded a TGI (NCI-H460 lung) of over 100 µM, a TGI (OVCAR-8 ovarian) of over 100 µM and a TGI (PC-3 prostate) of over 100 µM. For the same compound, the TGI (SK-OV-3 ovarian) was over 100 µM, the TGI (ACHN renal) was over 100 µM and the TGI (RPMI-8226 leukemia) was over 100 µM. For the same compound, the TGI (UO-31 renal) was over 100 µM and the TGI (BT-549 breast) was over 100 µM.
With `CCOC(=O)C(C)(C)Oc1ccc2c(-c3ccc(Cl)cc3)c(-c3ccc(Cl)cc3)c(=O)oc2c1` the TGI (MOLT-4 leukemia) was over 100 µM, the TGI (NCI-H460 lung) was over 100 µM and the TGI (OVCAR-8 ovarian) was over 100 µM. For the same compound, the TGI (ACHN renal) was over 100 µM, the TGI (RPMI-8226 leukemia) was over 100 µM and the TGI (UO-31 renal) was over 100 µM. It also gave a TGI (HL-60(TB) leukemia) of over 100 µM.
`O=C1/C(=C/c2ccccc2)NC(=S)N1CN1CCCCC1` showed a TGI (MOLT-4 leukemia) of over 100 µM, a TGI (OVCAR-8 ovarian) of over 100 µM and a TGI (PC-3 prostate) of over 100 µM. It also gave a TGI (SK-OV-3 ovarian) of over 100 µM, a TGI (ACHN renal) of over 100 µM and a TGI (RPMI-8226 leukemia) of over 100 µM. The TGI (UO-31 renal) was over 100 µM.
Compound `COC([C@@H](OC(=O)c1ccccc1)[C@H](OC(=O)c1ccccc1)C(O)COC(=O)c1ccccc1)n1cc(C)c(=O)[nH]c1=O` (stereo partly specified) has a TGI (MOLT-4 leukemia) of 60.2 µM, a TGI (NCI-H460 lung) of over 100 µM and a TGI (OVCAR-8 ovarian) of over 100 µM. For the same compound, the TGI (PC-3 prostate) was over 100 µM, the TGI (SK-OV-3 ovarian) was over 100 µM and the TGI (ACHN renal) was over 100 µM. For the same compound, the TGI (RPMI-8226 leukemia) was over 100 µM, the TGI (UO-31 renal) was over 100 µM and the TGI (BT-549 breast) was 77 µM.
With `CCCCn1c2ccccc2c2ccc3c(c21)C(=O)C=CC3=O` the TGI (MOLT-4 leukemia) was over 100 µM, the TGI (NCI-H460 lung) was over 100 µM and the TGI (OVCAR-8 ovarian) was over 100 µM. For the same compound, the TGI (SK-OV-3 ovarian) was over 100 µM, the TGI (ACHN renal) was over 100 µM and the TGI (RPMI-8226 leukemia) was over 100 µM. The TGI (UO-31 renal) was over 100 µM.
Work on `CCCCCN(CCCCC)CC(C)(C)C(O)c1ccc(OC)c2ccccc12` (stereo unspecified) yielded a TGI (MOLT-4 leukemia) of 76.9 µM, a TGI (NCI-H460 lung) of 24.9 µM and a TGI (OVCAR-8 ovarian) of 22.9 µM. The TGI (PC-3 prostate) was 26.4 µM, the TGI (ACHN renal) was 27.2 µM and the TGI (RPMI-8226 leukemia) was 32.1 µM. The TGI (UO-31 renal) was 8.93 µM and the TGI (HL-60(TB) leukemia) was 20.7 µM.
`CC(=O)OCCCCn1cc(Cn2ccc(=O)n(Cc3cn(CCCCOC(C)=O)nn3)c2=O)nn1` showed a TGI (MOLT-4 leukemia) of over 100 µM, a TGI (OVCAR-8 ovarian) of over 100 µM and a TGI (PC-3 prostate) of over 100 µM. For the same compound, the TGI (SK-OV-3 ovarian) was over 100 µM, the TGI (ACHN renal) was over 100 µM and the TGI (RPMI-8226 leukemia) was over 100 µM. For the same compound, the TGI (UO-31 renal) was over 100 µM and the TGI (BT-549 breast) was over 100 µM.
For `O=C(CSc1nnc(-c2ccc(N=Cc3ccc(Cl)cc3)cc2)o1)Nc1ccc([N+](=O)[O-])cc1`, the TGI (MOLT-4 leukemia) was 36.7 µM, the TGI (NCI-H460 lung) was over 100 µM and the TGI (OVCAR-8 ovarian) was over 100 µM. The TGI (SK-OV-3 ovarian) was over 100 µM, the TGI (ACHN renal) was 25.7 µM and the TGI (RPMI-8226 leukemia) was 8.01 µM. It also gave a TGI (UO-31 renal) of 37.2 µM and a TGI (HL-60(TB) leukemia) of 63.9 µM.
For `COC12CCC(C(C(=O)c3ccccc3)=C1C(=O)c1ccccc1)C(O)C2` (stereo unspecified), the TGI (MOLT-4 leukemia) was over 100 µM, the TGI (OVCAR-8 ovarian) was over 100 µM and the TGI (SK-OV-3 ovarian) was over 100 µM. For the same compound, the TGI (RPMI-8226 leukemia) was over 100 µM, the TGI (UO-31 renal) was over 100 µM and the TGI (HL-60(TB) leukemia) was over 100 µM.
Compound `CC(=O)OC(C)(C)CCC(=O)[C@](C)(O)[C@H]1[C@H](O)C[C@@]2(C)[C@@H]3CC=C4C(C)=C(OC5OC(CO)C(O)C(O)C5O)C(=O)C[C@@H]4[C@]3(C)C(=O)C[C@]12C` (stereo partly specified) has a TGI (MOLT-4 leukemia) of over 100 µM, a TGI (NCI-H460 lung) of over 100 µM and a TGI (OVCAR-8 ovarian) of over 100 µM. It also gave a TGI (PC-3 prostate) of over 100 µM, a TGI (SK-OV-3 ovarian) of over 100 µM and a TGI (ACHN renal) of over 100 µM. It also gave a TGI (UO-31 renal) of over 100 µM and a TGI (BT-549 breast) of over 100 µM.
Work on `Cc1cc(O)cc(O)c1C(=O)O[C@]1(C)C(=O)C=C2C=C(/C=C/C(=O)O)OC=C2C1=O` yielded a TGI (MOLT-4 leukemia) of over 100 µM, a TGI (NCI-H460 lung) of over 100 µM and a TGI (OVCAR-8 ovarian) of over 100 µM. The TGI (PC-3 prostate) was over 100 µM, the TGI (SK-OV-3 ovarian) was over 100 µM and the TGI (ACHN renal) was over 100 µM. The TGI (RPMI-8226 leukemia) was over 100 µM, the TGI (UO-31 renal) was over 100 µM and the TGI (HL-60(TB) leukemia) was 75.1 µM.
Work on `CCCCCCCCCCCCCCCCCC(=O)Nc1ccn(C2CCC(COP(=O)(O)O)O2)c(=O)n1` (stereo unspecified) yielded a TGI (MOLT-4 leukemia) of over 100 µM, a TGI (OVCAR-8 ovarian) of over 100 µM and a TGI (PC-3 prostate) of over 100 µM. For the same compound, the TGI (SK-OV-3 ovarian) was over 100 µM, the TGI (ACHN renal) was over 100 µM and the TGI (RPMI-8226 leukemia) was over 100 µM. It also gave a TGI (UO-31 renal) of over 100 µM and a TGI (BT-549 breast) of over 100 µM.
For `Cc1c(-c2nnc(-c3ccccc3)o2)c(=O)n(-c2ccccc2)n1C`, the TGI (MOLT-4 leukemia) was over 100 µM, the TGI (NCI-H460 lung) was over 100 µM and the TGI (OVCAR-8 ovarian) was over 100 µM. It also gave a TGI (SK-OV-3 ovarian) of over 100 µM, a TGI (ACHN renal) of over 100 µM and a TGI (RPMI-8226 leukemia) of over 100 µM. It also gave a TGI (UO-31 renal) of over 100 µM and a TGI (HL-60(TB) leukemia) of over 100 µM.
In the case of `O=C1C2=C(SCCS2)C(=O)c2c(Sc3ccc(Cl)cc3)c(Sc3ccc(Cl)cc3)c(Sc3ccc(Cl)cc3)c(Sc3ccc(Cl)cc3)c21`, the TGI (MOLT-4 leukemia) is reported as 30.9 µM, the TGI (NCI-H460 lung) is reported as over 100 µM and the TGI (OVCAR-8 ovarian) is reported as over 100 µM. For the same compound, the TGI (PC-3 prostate) was over 100 µM, the TGI (SK-OV-3 ovarian) was over 100 µM and the TGI (ACHN renal) was over 100 µM. For the same compound, the TGI (RPMI-8226 leukemia) was over 100 µM, the TGI (UO-31 renal) was over 100 µM and the TGI (BT-549 breast) was over 100 µM.
`COc1ccc2c(c1)CCN1CCCc3ccccc3C21` (stereo unspecified) gave a TGI (MOLT-4 leukemia) of over 100 µM, a TGI (OVCAR-8 ovarian) of over 100 µM and a TGI (PC-3 prostate) of over 100 µM. It also gave a TGI (SK-OV-3 ovarian) of over 100 µM, a TGI (ACHN renal) of over 100 µM and a TGI (RPMI-8226 leukemia) of 58.2 µM. For the same compound, the TGI (UO-31 renal) was over 100 µM and the TGI (BT-549 breast) was 86.6 µM.
In the case of `CN[C@@H](C)[C@@H](O)c1ccccc1`, the TGI (MOLT-4 leukemia) is reported as over 100 µM, the TGI (NCI-H460 lung) is reported as over 100 µM and the TGI (OVCAR-8 ovarian) is reported as over 100 µM. The TGI (PC-3 prostate) was over 100 µM, the TGI (ACHN renal) was over 100 µM and the TGI (RPMI-8226 leukemia) was over 100 µM. It also gave a TGI (UO-31 renal) of over 100 µM and a TGI (HL-60(TB) leukemia) of over 100 µM.
`Cn1ccnc1CCc1ccc(Cl)c(Cl)c1` was tested, and the TGI (MOLT-4 leukemia) was over 100 µM, the TGI (NCI-H460 lung) was over 100 µM and the TGI (OVCAR-8 ovarian) was over 100 µM. For the same compound, the TGI (SK-OV-3 ovarian) was over 100 µM, the TGI (ACHN renal) was over 100 µM and the TGI (RPMI-8226 leukemia) was over 100 µM. For the same compound, the TGI (UO-31 renal) was over 100 µM and the TGI (HL-60(TB) leukemia) was over 100 µM.
